Structures can show the parent of a compound that is named as a salt.
Test system: lactate oxidase
Assay: Enzyme Stability Test: oxalate as stabilising agent for lactate oxidase in S4932 rinse solution (Example 5)
Type: biochemical, Pediococcus
Procedure: Colorimetric lactate oxidase assay
The formation of H2 O2 is determined in a peroxidase (POD) assay system where a quinonimine dye is formed. The amount of formed quinonimine dye is determined spectrophotometically at 490 nm.
100 μL of Reagent A is added to a well of a microtiterplate (Immunoplate, Nunc, Roskilde, Denmark). The colour reaction is started by adding 100 μL of the Enzyme Solution. Immediately afterwards, the microtiterplate is placed in the plate-holder of a THERMOmax incubator (Molecular Devices, Menlo Park, Calif., USA) pre-set to: 37° C., kinetic mode, lag-time 5 min., reading time 15 min., and automix.
The enzymatic activity of lactate oxidase (and also other enzymes) is decreasing exponentially. Therefore, the half-life period (t1/2) for the enzymatic activity will be independent of the initial concentration, and, thus, t1/2 is an excellent expression for the stability of an enzyme under various conditions.
The enzymatic activity is determined (as described in the Enzyme Activity Test above) for the enzyme composition in question at least four times over a relevant period, e.g. every day for at least four days (day 0 to day 3). t1/2 is then calculated following standard mathematical methods.
A solution of 0.04 U/mL lactate oxidase in S4932 rinse solution (Radiometer Medical A/S, Copenhagen, Denmark) was prepared. Disodium oxalate corresponding to a total concentration of 1, 2, 4, 8, and 16 mM of oxalate was added. The enzymatic activity of the solutions was determined five times over a period of 13 days. The enzymatic stability of these solutions was compared with the enzymatic stability of a solution without oxalate.

O=C(O)C(=O)O [Oxalate, disodium oxalate]
Enzymatic Activity (oxalate 1 mM, time 0 h, 0.04 U/mL lactate oxidase): 13.76 mOD/min. | Enzymatic Activity (oxalate 1 mM, time 68.5 h): 11.47 mOD/min. | Enzymatic Activity (oxalate 1 mM, time 148 h): 11.01 mOD/min. | Enzymatic Activity (oxalate 1 mM, time 199 h): 9.89 mOD/min. | Enzymatic Activity (oxalate 1 mM, time 319 h): 8.67 mOD/min. | Enzymatic Activity (oxalate 2 mM, time 0 h, 0.04 U/mL lactate oxidase): 13.63 mOD/min. | Enzymatic Activity (oxalate 2 mM, time 68.5 h): 12.08 mOD/min. | Enzymatic Activity (oxalate 2 mM, time 148 h): 11.07 mOD/min. | Enzymatic Activity (oxalate 2 mM, time 199 h): 9.92 mOD/min. | Enzymatic Activity (oxalate 2 mM, time 319 h): 8.63 mOD/min. | Enzymatic Activity (oxalate 4 mM, time 0 h, 0.04 U/mL lactate oxidase): 12.87 mOD/min. | Enzymatic Activity (oxalate 4 mM, time 68.5 h): 11.90 mOD/min. | Enzymatic Activity (oxalate 4 mM, time 148 h): 11.36 mOD/min. | Enzymatic Activity (oxalate 4 mM, time 199 h): 10.36 mOD/min. | Enzymatic Activity (oxalate 4 mM, time 319 h): 9.60 mOD/min. | Enzymatic Activity (oxalate 8 mM, time 0 h, 0.04 U/mL lactate oxidase): 11.86 mOD/min. | Enzymatic Activity (oxalate 8 mM, time 68.5 h): 11.34 mOD/min. | Enzymatic Activity (oxalate 8 mM, time 148 h): 10.86 mOD/min. | Enzymatic Activity (oxalate 8 mM, time 199 h): 9.84 mOD/min. | Enzymatic Activity (oxalate 8 mM, time 319 h): 9.33 mOD/min. | Enzymatic Activity (oxalate 16 mM, time 0 h, 0.04 U/mL lactate oxidase): 10.37 mOD/min. | Enzymatic Activity (oxalate 16 mM, time 68.5 h): 10.15 mOD/min. | Enzymatic Activity (oxalate 16 mM, time 148 h): 9.72 mOD/min. | Enzymatic Activity (oxalate 16 mM, time 199 h): 8.81 mOD/min. | Enzymatic Activity (oxalate 16 mM, time 319 h): 8.65 mOD/min.
